The source of these data is patent publication EP0377044B1, “PROTECTIVE AGENT FOR RADIATION HAZARD” (MITSUI TOATSU CHEMICALS, Inc., priority 1988, dated 1989).

Square brackets hold non-standard residues; d marks the D form. Peptide text beside a SMILES is read from it. pGlu = O=C1CC[C@@H](C(=O)O)N1

Common to all, as to assay type: in vivo
For series [1], the system named is radiation-induced cancers in mice. As to the kind of experiment: Development of radiation-induced cancers in irradiated mice. As to conditions: administration over a certain period.
The test system of a further series is ddy male mice. As to the kind of experiment: Toxicity test, repeated subcutaneous administration to mice. As to conditions: for toxicity: five ddy male mice of 5 weeks old. From the text:
Thus, the medicament of the present invention is a safe medicament of extremely low toxicity and can be administered for a long period of time.

A further series has as its system mice. As to the kind of experiment: Whole body X-irradiation, % survival over thirty days (general description). As to the method:
The effect of the radioprotective agent of the present invention is confirmed by the experiments as described below. Thus, mice, rats, guinea pigs or the like mammals were subjected to whole body irradiation, using a X-radiation unit (Shimazu Seisaku-sho, Shin-Ai 250 II), to determine % survival over a period of thirty days. In carrying out these experiments, given amounts of the nonapeptide were administered by different routes of administration, such as intraperitoneal, intravenous, intramuscular, subcutaneous or oral route of administration, either every day or every other day over a given period of time from before or from immediately after the irradiation, to measure the body-weight of the animals and observe whether they were alive or dead.

A short description of series [2]: Body weight measurement of 600R-irradiated mice. As to conditions: for body weight (g) [Mean ± S.D.]: 600R X-ray, 100 µg/day s.c. pre-administration. How it is done:
In the same manner as in Experimental Examples 1 and 2, mice were irradiated with X-rays for 6 minutes. For a period of consecutive 14 days from 2 days before irradiation, the animals were subcutaneously administered, once a day, with 100 µg/day of FTS·CH₃COOH·2H₂O as medicament.
The body weight of each experimental group of mice in Experimental Example 3 was measured on consecutive days for observation of changes in weight.

On to `C[C@H](NC(=O)[C@@H]1CCC(=O)N1)C(=O)N[C@@H](CCCCN)C(=O)N[C@@H](CO)C(=O)N[C@@H](CCC(N)=O)C(=O)NCC(=O)NCC(=O)N[C@@H](CO)C(=O)N[C@@H](CC(N)=O)C(=O)O` [medicament, pGlu-Ala-Lys-Ser-Gln-Gly-Gly-Ser-Asn] ([pGlu]AKSQGGSN-OH), for which the “development of radiation-induced cancers” value in series [1] is “inhibits the development of radiation-induced cancers in mice”. The toxicity entry in the series with ddy male mice (50 mg/kg subcutaneously for consecutive 14 days) and in the series on ddy male mice (100 mg/kg subcutaneously for consecutive 14 days) was “No toxicity was observed” each time. For the same compound, the “toxicity (external check)” value in the series with ddy male mice (100 mg/kg subcutaneously every day for consecutive 14 days, mice) was “no abnormal symptom was found by external check”. Also, in the series with mice (compared with the control group), the “inhibition of body-weight loss” value is reported as “significant inhibition of body-weight loss”. Besides, the “% survival” value with mice (over a period of thirty days, depending on the dose of radiation, all mice in control group died) was 40 - 100%. Also, the life span-extending effect entry in the series with mice (versus control group) was “significant or marked life span-extending effect”. The “body weight (g) [Mean ± S.D.]” value in series [2] (1 day after irradiation) is 27.8±1.5 (15) g; in series [2] (3 days after irradiation) it was 27.7±1.1 (15) g; in series [2] (5 days after irradiation), 27.9±1.1 (15) g; in series [2] (7 days after irradiation), 28.8±1.2 (10) g; in series [2] (9 days after irradiation), 29.8±1.0 (10) g; in series [2] (11 days after irradiation), 30.2±0.9 (10) g. Also, the “body weight (g) [Mean ± S.D.]” value was 29.6±0.7 (10) g in series [2] (13 days after irradiation); 28.3±0.8 (10) g in series [2] (15 days after irradiation); 28.2±1.0 (10) g in series [2] (17 days after irradiation); 29.1±0.8 (10) g in series [2] (19 days after irradiation); 28.5±1.4 (10) g in series [2] (29 days after irradiation). In series [2] (600R X-rays, summary of Table 5), the “body weight versus control group” value was “evidently weighed more than the control group”.
